# Measurements as given in patent publication US6696427B1, “Use of bisphosphonates for the prevention and treatment of infectious processes” (Jomaa Pharmaka GmbH, priority 1998, dated 2004).
# System: γδ-T cells
# Experiment: activatability of γδ-T cells in mononuclear cells isolated from blood of treated test subjects
# Assay type: in vivo, human
# Description: […] After the third infusion, a blood sample was taken from the subjects. The mononuclear cells were isolated from the blood. The activatability of the γδ-T cells was then tested. A full description is published in Jomaa et al. FEMS Immunol. Med. Microbiol. September 1999; 25(4); 371-8.
# In contrast, cells from control subjects could be activated.
Compound,"γδ-T cell activation by antigens obtained from microorganisms (test subjects, 1 mg per treatment, protocol from Example 1)","γδ-T cell activation by antigens obtained from microorganisms (healthy test subjects, infusion of 90 mg at fortnightly intervals, blood sample after the third infusion, isolated mononuclear cells)"
"CCCCCN(C)CCC(O)(P(=O)(O)O)P(=O)(O)O [ibandronic acid, 3-methylpentylamino-1-hydroxypropylidene-1,1-bisphosphonic acid]",no γδ-T cell activation,
"NCCC(O)(P(=O)(O)O)P(=O)(O)O [pamidronic acid, 3-amino-1-hydroxypropylidene-1,1-bisphosphonic acid]",,no γδ-T cell activation
